These results are taken from patent US20150376654A1 (priority 2011, published 2015).

Experiment [1] concerns C. autoethanogenum DSM10061 plasmid control (pMTL83157) transformants. As to the kind of experiment: microbe, parasite or virus in culture. Here is the method:
(§1) Anaerobic ethanol was administered at 12 hour post inoculation.
(§2) The experiment was first conducted as described above using PETC medium and autotrophic conditions with CO as substrate (FIG. 16a) and afterwards repeated using a different growth medium and heterotrophic conditions with fructose as substrate to rule out the effect of the growth media and substrate (FIG. 16b). A plasmid control was included. […] For ethanol challenge assay, 500 μL of two day old cultures were inoculated into each of five 60 mL serum bottles containing 20 mL of selective MMYF medium and incubated at 37° C. without agitation. […] Static incubation at 37° C. was allowed for 80-100 hours and the growth was monitored by measuring the optical density at a wavelength of 600 nm using Jenway 7300 spectrophotometer. Microscope examinations were routinely carried out.
(§3) The experiment was first conducted as described above using PETC medium and autotrophic conditions with CO as substrate (FIG. 16a) and afterwards repeated using a different growth medium and heterotrophic conditions with fructose as substrate to rule out the effect of the growth media and substrate (FIG. 16b). A plasmid control was included. Both plasmid control (pMTL83157) transformants and chaperone over-expressing (pMTL83156-groESL) transformants were cultured anaerobically in MMYF medium supplemented with freshly prepared 7.5 μg/mL thiamphenicol (final concentration). For ethanol challenge assay, 500 μL of two day old cultures were inoculated into each of five 60 mL serum bottles containing 20 mL of selective MMYF medium and incubated at 37° C. without agitation. […] Static incubation at 37° C. was allowed for 80-100 hours and the growth was monitored by measuring the optical density at a wavelength of 600 nm using Jenway 7300 spectrophotometer. Microscope examinations were routinely carried out.

Experiment [2] deals with Zymomonas mobilis or Lactococcus strains. As to conditions: cited from earlier work.
The subject of experiment [3] is Clostridium ljungdahlii DSM13583 pMTL83156-groESL transformants.
For experiment [4], the system named is Clostridium autoethanogenum DSM10061. Here is the method: (§4) The ethanol tolerance of three acetogenic strains Clostridium ljungdahlii DSM13583, Clostridium autoethanogenum DSM10061, and C. autoethanogenum DSM23693 was tested in serum bottles.
(§5) Ethanol was added in various concentrations to an active growing culture at 37° C. in PETC medium (Table 1) with 30 psi steel mill gas as substrate. The media was prepared by using standard anaerobic techniques (Hungate R E. A roll tube method for cultivation of strict anaerobes, In Norris J R and Ribbons D W (eds.), Methods in Microbiology, vol. 3B. Academic Press, N Y, 1969: 117-132; Breznak J A and Costilow R N, Physicochemical factors in growth, In Gerhardt P (ed.), Methods for general and molecular bacteriology. American Society for Microbiology, Washington, 1994: 137-154). […] Slightly acidified water was used (0.005 M H2SO4) as mobile phase with a flow rate of 0.7 ml/min. To remove proteins and other cell residues, 400 μl samples were mixed with 100 μl of a 2% (w/v) 5-Sulfosalicylic acid and centrifuged at 14,000×g for 3 min to separate precipitated residues. 10 μl of the supernatant were then injected into the HPLC for analyses.

Experiment [5] relates to Clostridium autoethanogenum DSM23693. Here is the method:
as §4, §5

The subject of experiment [6] is Clostridium ljungdahlii DSM13583. Conditions: 50 g/L ethanol, serum bottle studies. Here is the method: as §4, §5
The test system of experiment [7] is majority of bacteria. Conditions: cited from earlier work.
In experiment [8] the test system is C. autoethanogenum DSM10061 pMTL83156-grpE-dnaK-dnaJ transformant. As to conditions: 5 g/L, 10 g/L and 25 g/L ethanol, up to 102 h post inoculation. Here is the method: as §1, §2
The experiment was first conducted as described above using PETC medium and autotrophic conditions with CO as substrate (FIG. 16a) and afterwards repeated using a different growth medium and heterotrophic conditions with fructose as substrate to rule out the effect of the growth media and substrate (FIG. 16b). A plasmid control was included. […] Static incubation at 37° C. was allowed for 80-100 hours and the growth was monitored by measuring the optical density at a wavelength of 600 nm using Jenway 7300 spectrophotometer. […]

Experiment [9] has as its system Clostridium ljungdahlii pMTL83155-groESL (phosphotransacetylase promoter). Conditions: construct with the phosphotransacetylase/acetate kinase operon promoter. Here is the method:
In addition, the effect of different promoter sequences was evaluated. The two strong C. autoethanogenum promoters of pyruvate:ferredoxin oxidoreductase and phosphotransacetylase/acetate kinase operon were used.

The subject of experiment [10] is Clostridium ljungdahlii DSM13583 pMTL83156-grpE-dnaK-dnaJ transformants.
The test system of experiment [11] is Clostridium ljungdahlii DSM13583 pMTL83157 plasmid control.
In experiment [12] the test system is C. autoethanogenum DSM23693 wild-type (WT), parental. Conditions: PETC media, 30 psi steel mill gas. Here is the method:
(§6) To investigate whether overexpression of GroESL enhances ethanol tolerance of C. autoethanogenum DSM23693, both wild-type (WT), i.e. parental microorganism and transformed strain carrying plasmid pMTL85246-GroESL were challenged with different concentrations of ethanol (FIG. 8).
(§7) Growth experiments in triplicates were carried out in 50 ml PETC media (Table 1) in serum bottles sealed with rubber stoppers and 30 psi steel mill gas (collected from New Zealand Steel site in Glenbrook, NZ; composition: 44% CO, 32% N2, 22% CO2, 2% H2) in the headspace as sole energy and carbon source. […] All cultures were inoculated to the same optical density using the same pre-culture for either wild-type (parental) or transformed strain. Changes in biomass were measured spectrophotometrically at 600 nm until growth ceased. The maximum biomass of each culture was compared with the unchallenged culture.

Experiment [13] concerns C. autoethanogenum DSM23693 transformed strain carrying plasmid pMTL85246-GroESL. Conditions: PETC media, 30 psi steel mill gas, biomass at 600 nm. Here is the method: as §6, §7
Experiment [14] relates to C. autoethanogenum DSM10061 chaperone over-expressing (pMTL83156-groESL) transformants. Conditions: for OD600 reached: 37 h post inoculation, MMYF medium. Here is the method: as §2, §3
Experiment [15] deals with Two species of the genus Clostridium. As to conditions: cited from earlier work.
In experiment [16] the test system is Clostridium acetobutylicum overproducing GroESL. As to conditions: overproduction of GroESL; cited from earlier work.
The mark [17] stands for this setting: Clostridium autoethanogenum, DSM10061, read-out: OD600 inhibition (% reduction in OD600 relative to unchallenged culture).
[18] abbreviates: 5 g/L ethanol added after 12 hours, 66 hours.
Setting [19] is: 50 g/L ethanol, serum bottle studies.

As a reminder, the inhibition is the percentage by which the read-out fell short of the control.

Like-named read-outs stand apart in the source and are kept apart here.

For the molecule `CCO` [ethanol], in [1] (5 g/L ethanol added 12 hour post inoculation, MMYF medium), the “time to exceed OD600 0.25” value was “more than 102 h”. The OD600 reached in experiment [1] (25 g/L ethanol added 12 hour post inoculation, 78 h post inoculation, MMYF medium) was 0.29; in experiment [14] (5 g/L ethanol added 12 hour post inoculation), 0.38; in experiment [14] (25 g/L ethanol added 12 hour post inoculation), 0.31. The inhibition at 10000 µg/mL in [1] (setting [17]) was determined as 74%. The inhibition at 25000 µg/mL in [1] (setting [17]) is 79%. In addition, the tolerated ethanol result in experiment [2] is recorded as “more than 10%”. For the same molecule, the “change in OD600” value in [3] and in [11] was “reduction in OD600” in each case. In addition, the “ethanol tolerance over the wild-type” value is listed as “significantly enhanced” in experiment [3] and “didn't enhance ethanol tolerance” in experiment [9]. The “time to reach OD600 of ~0.6 relative to plasmid control” value in [3] and in [10] was “significantly earlier” in each case. For the same molecule, the OD600 is 0.97 in [3] (setting [18]); 0.42 in [3] (25 g/L ethanol added after 12 hours, 36 h post inoculation); 1.12 in experiment [10] (setting [18]); 1.15 in experiment [10] (10 g/L ethanol added after 12 hours, 114 h post inoculation); 0.48 in experiment [10] (25 g/L ethanol added after 12 hours, 36 hrs. post inoculation); ~0.66 in [11] (setting [18]). Moreover, the OD600 in experiment [11] (10 g/L ethanol added after 12 hours, 101 h post inoculation) stood at 0.67; in [11] (25 g/L ethanol added after 12 hours, 30 h post inoculation) it was 0.20. Besides, the “growth in presence of ethanol” value in experiment [4] (25 g/L ethanol) was “unable to grow”; in experiment [4] (setting [19]), “none of the strains was able to grow”; in experiment [5] (setting [19]) it was “none of the strains was able to grow”; in experiment [6], “none of the strains was able to grow”; in [14] (25 g/L ethanol), “able to grow”; in experiment [14] (50 g/L ethanol), “able to grow”. For the same molecule, the “natural tolerance to ethanol” value in [5] (25 g/L ethanol) was “tolerant”. For the same molecule, in [5] (serum bottles, PETC medium, 37° C., 30 psi steel mill gas), the “ethanol concentration at which growth was inhibited” value is reported as 10-20 g/l. In addition, the maximum tolerated ethanol in [7] is given as 4-7%. In addition, the “growth inhibition by ethanol challenge relative to plasmid control” value in experiment [8] was “significantly less inhibited”. For the same molecule, the “OD600 relative to plasmid controls” value in experiment [10] is listed as “higher OD600 than plasmid controls”. Moreover, the “increase in OD600” value in experiment [10] (50 g/L ethanol challenge at 12 hour post inoculation) amounted to 0.096. For the same molecule, in experiment [12] (45 g/l ethanol, biomass at 600 nm), the “doubling of culture when challenged with ethanol” value is given as 0.39 doubling. For the same molecule, the “biomass change when ethanol was added” value in [12] (60 g/l ethanol) was “biomass even dropped”. The “growth after addition of ethanol” value in experiment [12] (60 g/l ethanol) was “ceased”. In addition, the “doublings of culture when challenged with ethanol” value came to 2.14 times in experiment [13] (45 g/l ethanol) and 1.27 times in [13] (60 g/l ethanol). For the same molecule, in [14] (5 g/L, 10 g/L and 25 g/L ethanol at 12 hour post inoculation), the “growth relative to plasmid control” value is on record as “significantly earlier growth”. In addition, the “biomass relative to plasmid control” value in experiment [14] (all levels of ethanol challenge) is “higher biomass”.

butanol: in experiment [7], the “tolerated butanol level (hardly exceeded)” value is given as 1.5-2.5%. The tolerated butanol level entry in [15] is given as “around 1.5%”. In experiment [16], the “reduction of inhibition by butanol challenge compared to the wild-type” value is “up to 85%”.
